Data from patent publication US20260191849A1, “PHARMACEUTICAL COMPOSITION FOR TREATMENT OF CANCER” (WIGEN BIOMEDICINE TECHNOLOGY (SHANGHAI) CO., LTD., priority 2022, published 2026).
Read-outs that look alike come from different tables or passages of the source.

Experiments:
Assay type in all cases: cell-based
HCT116 cells [1] = assay: Combined use of compound 257 with PLK1 inhibitor on HCT116 cell viability, 72 h (Biological Example 6)
Experimental: (§1) HCT116 cells were seeded on a 384-well plate at 3000 cells/well. After overnight adherence culture, DMSO or compound 257 serially diluted in a 1:5 ratio from 5 μM and a PLK1 inhibitor with a specified concentration were added. The cell viability was assessed 72 h after dosing by measuring the intracellular ATP content. The inhibition percentages of viable cells by the compounds were calculated by comparing with the DMSO group, and the IC50 values were also calculated.

HCT116 cells [2] = assay: Combined use of compound 257 or AMG650 with PLK1 inhibitor on HCT116 cell viability, 168 h (Biological Example 8)
Experimental: as §1, with “257 or AMG650” for “257”, “from 10” for “from 5”, “assessed 168” for “assessed 72”

SK-OV-3 cells = assay: Combined use of compound 257 or AMG650 with PLK1 inhibitor on SK-OV-3 cell viability, 168 h (Biological Example 21); conditions: 168 h; for IC50: Homo sapiens, SK-OV-3, 168 h, SK-OV-3 cells, read-out: IC50
Experimental: (§2) SK—OV-3 cells were seeded on a 384-well plate at 3000 cells/well. After overnight adherence culture, DMSO or compound 257 or AMG650 serially diluted in a 1:5 ratio from 400 nM and a PLK1 inhibitor with a specified concentration were added. The cell viability was assessed 168 h after dosing by measuring the intracellular ATP content. […] Furthermore, interactions between the drugs were also analyzed using the BLISS independence model, and the results are shown in FIG. 11 and FIG. 12.

HT29 cells [3] = assay: Combined use of compound 257 or AMG650 with PLK1 inhibitor (Volasertib) on HT29 cell viability, 168 h (Biological Example 22); conditions: 168 h; for IC50: Homo sapiens, HT-29, 168 h, HT29 cells, read-out: IC50
Experimental: as §2, with “HT29” for “SK—OV-3”, “15” for “11”, “16.” for “12.”

HT29 cells [4] = assay: Combined use of compound 257 or AMG650 with PLK1 inhibitor on HT29 cell viability, 168 h (Biological Example 7); conditions: for Maximum inhibition rate / Minimum inhibition rate / IC50: HT29 cells; for IC50: Homo sapiens, HT-29, 168 h
Experimental: as §1, with “HT29” for “HCT116”, “257 or AMG650” for “257”, “400 nM” for “5 μM”, “168” for “72”

HT29 cells [5] = assay: Combined use of compound 257, AMG650 or Compound A with PLK1 inhibitor on HT29 cell viability, 168 h (Biological Example 19); conditions: for IC50: Homo sapiens, HT-29, 168 h, HT29 cells, read-out: IC50
Experimental: HT29 cells were seeded on a 384-well plate at 3000 cells/well.

HCT116 cells [6] = assay: Combined use of compound 257, AMG650 or Compound A with PLK1 inhibitor on HCT116 cell viability, 168 h (Biological Example 20)
Experimental: as §1, with “257, AMG650, or Compound A” for “257”, “400 nM” for “5 μM”, “168” for “72”

HT29 cells [7] = assay: Combined use of compound 257 with Aurora B inhibitor on HT29 cell viability, 72 h (Biological Example 11); conditions: for IC50: Homo sapiens, HT-29, 72 h, HT29 cells
Experimental: as §1, with “HT29” for “HCT116”, “an Aurora B” for “a PLK1”

[8] = Homo sapiens, HCT-116, HCT116 cells, Volasertib 0 nM

Compound: COc1ccc(NC(=O)c2ccc(NS(=O)(=O)CCO)cc2N2CCC3(CC2)CC3)nc1N1CCC(F)(F)CC1 [Compound 257]
- IC50 (HCT116 cells [1]; HCT116 cells, Volasertib 10 nM): > 10000 nM
- IC50 (HCT116 cells [1]; HCT116 cells, Volasertib 50 nM): > 10000 nM
- IC50 (HCT116 cells [1]; [8]): > 10000 nM
- anti-proliferative activity against HCT116 cells, monotherapy (HCT116 cells [1]; in words): did not exhibit anti-proliferative activity
- synergistic effect on HCT116 cell viability, combined use with the PLK1 inhibitor (HCT116 cells [1]; in words): no significant synergistic effect
- IC50 (HCT116 cells [2]; HCT116 cells, Volasertib 3.12 nM): > 10000 nM
- IC50 (HCT116 cells [2]; HCT116 cells, Volasertib 6.25 nM): > 10000 nM
- IC50 (HCT116 cells [2]; [8]): > 10000 nM
- synergistic effect on HCT116 cell viability, combined use with the PLK1 inhibitor (HCT116 cells [2]; Volasertib, in words): no significant synergistic effect
- inhibitory effect on SK-OV-3 cells, combined use with the PLK1 inhibitor compared with monotherapy (SK-OV-3 cells; Volasertib, in words): stronger inhibitory effect
- IC50 (SK-OV-3 cells; Volasertib 0.0001 nM): 15.4 nM
- IC50 (SK-OV-3 cells; Volasertib 3.13 nM): 12.8 nM
- IC50 (SK-OV-3 cells; Volasertib 6.25 nM): 12.2 nM
- IC50 (SK-OV-3 cells; Volasertib 12.5 nM): 8.7 nM
- IC50 (SK-OV-3 cells; Volasertib 25 nM): 5.9 nM
- IC50 (SK-OV-3 cells; Volasertib 50 nM): 2 nM
- inhibitory effect on HT-29 cells, combined use with the PLK1 inhibitor compared with monotherapy (HT29 cells [3]; Volasertib, in words): stronger inhibitory effect
- IC50 (HT29 cells [3]; Volasertib 0.0001 nM): 10.9 nM
- IC50 (HT29 cells [3]; Volasertib 3.13 nM): 7.9 nM
- IC50 (HT29 cells [3]; Volasertib 6.25 nM): 5.9 nM
- IC50 (HT29 cells [3]; Volasertib 12.5 nM): 2.5 nM
- IC50 (HT29 cells [3]; Volasertib 25 nM): 0.4 nM
- Maximum inhibition rate (HT29 cells [4]; Volasertib 0 nM): 85.3%
- Minimum inhibition rate (HT29 cells [4]; Volasertib 0 nM): 3.2%
- Maximum inhibition rate (HT29 cells [4]; Volasertib 3.12 nM): 94.6%
- Minimum inhibition rate (HT29 cells [4]; Volasertib 3.12 nM): 1.8%
- Maximum inhibition rate (HT29 cells [4]; Volasertib 6.25 nM): 94.4%
- Minimum inhibition rate (HT29 cells [4]; Volasertib 6.25 nM): 0.5%
- IC50 (HT29 cells [4]; Volasertib 0 nM): 14 nM
- IC50 (HT29 cells [4]; Volasertib 3.12 nM): 7 nM
- IC50 (HT29 cells [4]; Volasertib 6.25 nM): 2.8 nM
- inhibitory effect on HT-29 cells, combined use with the PLK1 inhibitor compared with monotherapy (HT29 cells [4]; Volasertib, in words): stronger inhibitory effect
- inhibitory effect on HT-29 cells, combined use with the PLK1 inhibitor compared with monotherapy (HT29 cells [5]; CYC140 or TAK-960, in words): stronger inhibitory effect
- IC50 (HT29 cells [5]; CYC140 (Plogosertib) 0.0001 nM): 10.6 nM
- IC50 (HT29 cells [5]; CYC140 (Plogosertib) 1.6 nM): 8.3 nM
- IC50 (HT29 cells [5]; CYC140 (Plogosertib) 8 nM): 6.9 nM
- IC50 (HT29 cells [5]; CYC140 (Plogosertib) 40 nM): 0.9 nM
- IC50 (HT29 cells [5]; TAK-960 0.0001 nM): 10.1 nM
- IC50 (HT29 cells [5]; TAK-960 1.6 nM): 8.5 nM
- IC50 (HT29 cells [5]; TAK-960 8 nM): 1.7 nM
- IC50 (HT29 cells [5]; TAK-960 40 nM): 1.7 nM
- synergistic effect on HCT116 cell viability, combined use with the PLK1 inhibitor (HCT116 cells [6]; CYC140 or TAK-960, in words): no significant synergistic effect
- IC50 (HCT116 cells [6]; HCT116 cells, CYC140 (Plogosertib) 1.6 nM): > 400 nM
- IC50 (HCT116 cells [6]; HCT116 cells, CYC140 (Plogosertib) 8 nM): > 400 nM
- IC50 (HCT116 cells [6]; HCT116 cells, CYC140 (Plogosertib) 40 nM): > 400 nM
- IC50 (HCT116 cells [6]; HCT116 cells, TAK-960 0 nM): > 400 nM
- IC50 (HCT116 cells [6]; HCT116 cells, TAK-960 1.6 nM): > 400 nM
- IC50 (HCT116 cells [6]; HCT116 cells, TAK-960 8 nM): > 400 nM
- IC50 (HCT116 cells [6]; HCT116 cells, TAK-960 40 nM): > 400 nM
- IC50 (HCT116 cells [6]; Homo sapiens, HCT-116, HCT116 cells, CYC140 (Plogosertib) 0 nM): > 400 nM
- anti-proliferative activity against HCT116 cells, monotherapy (HCT116 cells [6]; in words): did not exhibit anti-proliferative activity
- IC50 (HT29 cells [7]; Barasertib 0 nM): 13.9 nM
- IC50 (HT29 cells [7]; Barasertib 20 nM): 7.3 nM
- IC50 (HT29 cells [7]; Barasertib 100 nM): 4.2 nM
- IC50 (HT29 cells [7]; Barasertib 500 nM): 3.3 nM
- IC50 (HT29 cells [7]; SP-96 0 nM): 14.5 nM
- IC50 (HT29 cells [7]; SP-96 20 nM): 16.1 nM
- IC50 (HT29 cells [7]; SP-96 100 nM): 14.5 nM
- IC50 (HT29 cells [7]; SP-96 500 nM): 5.8 nM
- inhibitory effect on HT-29 cells, combined use with the Aurora B inhibitor compared with monotherapy (HT29 cells [7]; in words): stronger inhibitory effect
